Results reported in patent publication US20080317752A1, “Inhibition of Tumorigenesis by Inhibition of a6b4 Integrin” (Sloan-Kettering Institute for Cancer Research, priority 2005, published 2008).

Tests used:
[1] = tested on: mammary tumors of MMTV-Neu (YD) mice; experiment: Treatment of tumor-bearing MMTV-Neu(YD) mice, tumor volume by caliper; assay type: in vivo; details: for effect on tumor volume: Iressa 100 mg/Kg/day, day 24; for treated tumors that regress: Iressa 100 mg/Kg/day gastric gavage 24 days
ERK and Akt [2] = experiment: Activation of ERK and Akt in tumor lysates of treated mice; assay type: in vivo; details: Neu(YD)/b4-1355T versus Neu(YD)/b4-WT tumors
activated ErbB2 = experiment: Inhibition of activated ErbB2 (IC50); assay type: cell-based; details: Neu-b4-WT versus Neu-b4-1355T cells in vitro
ErbB2 [3] = experiment: Activation of ErbB2 in tumors of treated mice; details: Neu(YD)/b4-WT and Neu(YD)/b4-1355T tumors
ErbB2 [4] = experiment: Phosphorylation of ErbB2 (immunoprecipitation / immunoblotting); assay type: cell-based; details: for phosphorylation of the P-loop of ErbB2: immunoblotting of total lysates, single agent
Procedure: (§1) Biochemical studies were performed to study the molecular mechanism by which b4 signaling promotes mammary tumorigenesis.
Since SFKs can phosphorylate Y845 in the P-loop of the EGF-R, we examined the effect of SFK inhibition on phosphorylation of the corresponding tyrosine in the P-loop of ErbB2.

SFKs = experiment: Activation of SFKs; assay type: cell-based
Procedure: as §1

c-Jun = experiment: Phosphorylation of c-Jun in Neu-b4-WT cells; assay type: cell-based, mouse
STAT3 = experiment: Phosphorylation of STAT3 in Neu-b4-WT cells; assay type: cell-based, mouse
From the text: Prior studies have linked SFK-mediated phosphorylation of the P-loop of ErbB receptors to JAK-STAT signaling. Since deletion of the b4 signaling domain reduces SFK activation and association with ErbB2 and decreases phosphorylation of the P-loop of ErbB-2, we examined the effect of this deletion on STAT3 activation. Phosphorylation at Y705 is essential for dimerization and activation of STAT3. […] […]. STAT3 S727, which is targeted by ERK, was phosphorylated at similar levels in both types of cells.

Neu-b4-WT cells [5] = experiment: Assembly of adherens and tight junctions in isogenic Neu-b4-WT cells; details: Neu-b4-WT cells in culture
From the text: To examine if the b4 integrin disrupts epithelial adhesion by a direct signaling mechanism, we generated isogenic Neu-transformed mammary tumor cells expressing either wildtype or mutant b4 by using an RNAi-reconstitution strategy.

[6] = tested on: tumor cells expressing wild-type b4; experiment: Assembly of adherens and tight junctions in primary ErbB2-transformed tumor cells; assay type: cell-based, mouse
From the text: Tight junctions have emerged as key regulators of mammalian epithelial polarity and adhesion. Prompted by the observation that deletion of the b4 signaling domain increases the organization of tight junctions in mammary tumors, we used an ex vivo approach to examine the effect of b4 signaling on epithelial adhesion and polarity.

[7] = tested on: mammary tumors of MMTV-Neu (YD) mice; experiment: Anti-Ki-67 staining of tumor sections from treated MMTV-Neu(YD) mice; assay type: in vivo
Procedure: Tumor sections were stained by IHC with anti-Ki-67 followed by counterstaining with hematoxylin. Bar=[…].
Tumor sections were stained with anti-Ki-67 Mab, which labels proliferating cells.

b4 = experiment: Tyrosine phosphorylation of b4; assay type: cell-based
Procedure: as §1

Neu-b4-WT cells [8] = experiment: Matrigel invasion assay in response to FBS; details: Iressa 10 μM
ERK and Akt [9] = experiment: Activation of ERK and Akt in Neu-b4 cells in vitro; assay type: cell-based, mouse; details: Neu-b4-1355T versus Neu-b4-WT cells
[10] = tested on: mammary tumors of Neu(YD) mice; experiment: Tumor apoptosis in treated mice; assay type: in vivo
c-Jun and STAT3 = experiment: Activation of c-Jun and STAT3 in tumor lysates of treated mice; assay type: in vivo; details: both types of tumors

Sequence of activated ErbB2 (P04626 23-1255): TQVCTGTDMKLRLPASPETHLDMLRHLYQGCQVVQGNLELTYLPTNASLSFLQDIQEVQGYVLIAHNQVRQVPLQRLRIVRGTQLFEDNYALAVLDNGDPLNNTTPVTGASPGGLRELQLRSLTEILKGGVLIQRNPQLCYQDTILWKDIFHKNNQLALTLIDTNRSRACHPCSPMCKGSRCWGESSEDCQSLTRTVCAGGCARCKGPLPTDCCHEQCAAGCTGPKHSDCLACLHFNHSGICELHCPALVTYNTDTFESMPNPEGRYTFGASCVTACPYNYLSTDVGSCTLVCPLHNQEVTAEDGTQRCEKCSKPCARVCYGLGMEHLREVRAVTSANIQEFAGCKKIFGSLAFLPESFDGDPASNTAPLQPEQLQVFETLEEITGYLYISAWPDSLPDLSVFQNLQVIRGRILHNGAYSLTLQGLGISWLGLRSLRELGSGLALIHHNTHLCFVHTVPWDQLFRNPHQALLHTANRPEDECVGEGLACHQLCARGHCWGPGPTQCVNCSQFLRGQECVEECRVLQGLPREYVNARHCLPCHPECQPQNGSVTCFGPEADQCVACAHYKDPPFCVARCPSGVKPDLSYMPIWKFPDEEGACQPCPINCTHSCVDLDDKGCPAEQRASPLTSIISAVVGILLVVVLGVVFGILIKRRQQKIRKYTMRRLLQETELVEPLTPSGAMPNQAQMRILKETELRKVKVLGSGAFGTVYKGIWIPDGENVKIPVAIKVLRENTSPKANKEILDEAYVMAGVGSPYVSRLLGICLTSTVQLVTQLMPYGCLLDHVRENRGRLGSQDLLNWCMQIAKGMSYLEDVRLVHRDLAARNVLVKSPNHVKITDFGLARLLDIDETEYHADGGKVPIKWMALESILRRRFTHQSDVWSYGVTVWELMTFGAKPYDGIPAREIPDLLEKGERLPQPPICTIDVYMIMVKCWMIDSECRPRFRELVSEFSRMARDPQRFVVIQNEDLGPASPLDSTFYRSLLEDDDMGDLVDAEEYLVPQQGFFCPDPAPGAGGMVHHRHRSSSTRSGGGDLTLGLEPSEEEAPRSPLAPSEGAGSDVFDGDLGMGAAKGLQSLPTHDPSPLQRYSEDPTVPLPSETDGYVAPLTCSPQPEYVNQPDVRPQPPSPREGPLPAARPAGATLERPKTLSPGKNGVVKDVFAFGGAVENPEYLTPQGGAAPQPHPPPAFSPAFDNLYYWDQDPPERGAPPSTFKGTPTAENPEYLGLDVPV

COc1cccc2c1C(=O)c1c(O)c3c(c(O)c1C2=O)C[C@@](O)(C(=O)CO)C[C@@H]3O[C@H]1C[C@H](N)[C@H](O)[C@H](C)O1 [Doxorubicin]
tumor regression ([1]; Neu(YD)/b4-WT and Neu(YD)/b4-1355T mice, single dose 10 mg/Kg): failed to induce tumor regression in either type of mouse

COc1cc2ncnc(Nc3ccc(F)c(Cl)c3)c2cc1OCCCN1CCOCC1 [Iressa, Gefitinib]
activation of ERK and Akt in tumor lysates (ERK and Akt [2]): inhibited activation of ERK and Akt in Neu(YD)/b4-1355T tumors by an extent larger than it did in Neu(YD)/b4-WT tumors
apparent IC50, comparison of cell types (activated ErbB2): equal apparent IC50
activation of ErbB2 in tumors (ErbB2 [3]): suppressed activation of ErbB2 in both types of tumors
phosphorylation of ErbB2 at its major autophosphorylation site (ErbB2 [4]): suppressed
tyrosine phosphorylation of ErbB2 (ErbB2 [4]): suppressed
phosphorylation of the P-loop of ErbB2 (ErbB2 [4]): inhibit phosphorylation of the P-loop of ErbB2 to a significant extent
activation of SFKs (SFKs): did not affect
effect on tumor volume ([1]; Neu(YD)/b4-1355T tumors): induced regression
effect on tumor volume ([1]; Neu(YD)/b4-WT tumors): only reduced the rate of growth
treated tumors that regress ([1]; control group (wild-type b4 mice)): ~20%
treated tumors that regress ([1]; tumors arising in b4-mutant mice): About 80%
phosphorylation of c-Jun (c-Jun): inhibited phosphorylation of c-Jun in Neu-b4-WT cells, but at concentrations higher than those required to suppress activation of ERK
phosphorylation of STAT3 (STAT3): inhibited phosphorylation of STAT3 in Neu-b4-WT cells at concentrations higher than those necessary to suppress activation of ERK
organization of adherens and tight junctions (Neu-b4-WT cells [5]): failed to organize both types of junctions, unless they were treated with Iressa
reassembly of adherens and tight junctions [6]: promoted reassembly of both adherens and tight junctions
tumor cell proliferation ([7]; Neu(YD)/b4-1355T mice): inhibited tumor cell proliferation
tumor cell proliferation ([7]; Neu(YD)/b4-WT mice): more modest inhibitory effect
tyrosine phosphorylation of b4 (b4): suppressed
Matrigel invasion (Neu-b4-WT cells [8]): prevented their invasion
activation of ERK and Akt in vitro (ERK and Akt [9]): at doses lower than in Neu-b4-WT cells
tumor apoptosis, comparison of genotypes ([10]; Neu(YD)/b4-1355T versus Neu(YD)/b4-WT mice): increased tumor apoptosis in Neu(YD)/b4-1355T mice to a larger extent than it did in Neu(YD)/b4-WT mice
overall apoptotic rates ([10]; both genotypes, treated): less than 1%
activation of c-Jun and STAT3 in tumor lysates (c-Jun and STAT3): did not suppress but seemed to increase to a small extent

CC(C)(C)n1nc(-c2ccc(Cl)cc2)c2c(N)ncnc21 [PP2]
phosphorylation of ErbB2 at its major autophosphorylation site (ErbB2 [4]): exerted the opposite effects
tyrosine phosphorylation of ErbB2 (ErbB2 [4]): only partially inhibited
phosphorylation of the P-loop of ErbB2 (ErbB2 [4]): inhibit phosphorylation of the P-loop of ErbB2 to a significant extent
activation of SFKs (SFKs): exerted the opposite effects
tyrosine phosphorylation of b4 (b4): suppressed
